We go through four molecules from publication PMC8550792, “Evolution of kinase polypharmacology across HSP90 drug discovery” (Cell Chemical Biology, 2021).

Experiment in all cases: biochemical
Format in all cases: biochemical

In assay [1] the target is T1, 382 unique human kinases (Homo sapiens, UniProt P29322).
T1 construct: purchased Reaction Biology (HotSpot contract assay)
T1 sequence (P29322 28-1005): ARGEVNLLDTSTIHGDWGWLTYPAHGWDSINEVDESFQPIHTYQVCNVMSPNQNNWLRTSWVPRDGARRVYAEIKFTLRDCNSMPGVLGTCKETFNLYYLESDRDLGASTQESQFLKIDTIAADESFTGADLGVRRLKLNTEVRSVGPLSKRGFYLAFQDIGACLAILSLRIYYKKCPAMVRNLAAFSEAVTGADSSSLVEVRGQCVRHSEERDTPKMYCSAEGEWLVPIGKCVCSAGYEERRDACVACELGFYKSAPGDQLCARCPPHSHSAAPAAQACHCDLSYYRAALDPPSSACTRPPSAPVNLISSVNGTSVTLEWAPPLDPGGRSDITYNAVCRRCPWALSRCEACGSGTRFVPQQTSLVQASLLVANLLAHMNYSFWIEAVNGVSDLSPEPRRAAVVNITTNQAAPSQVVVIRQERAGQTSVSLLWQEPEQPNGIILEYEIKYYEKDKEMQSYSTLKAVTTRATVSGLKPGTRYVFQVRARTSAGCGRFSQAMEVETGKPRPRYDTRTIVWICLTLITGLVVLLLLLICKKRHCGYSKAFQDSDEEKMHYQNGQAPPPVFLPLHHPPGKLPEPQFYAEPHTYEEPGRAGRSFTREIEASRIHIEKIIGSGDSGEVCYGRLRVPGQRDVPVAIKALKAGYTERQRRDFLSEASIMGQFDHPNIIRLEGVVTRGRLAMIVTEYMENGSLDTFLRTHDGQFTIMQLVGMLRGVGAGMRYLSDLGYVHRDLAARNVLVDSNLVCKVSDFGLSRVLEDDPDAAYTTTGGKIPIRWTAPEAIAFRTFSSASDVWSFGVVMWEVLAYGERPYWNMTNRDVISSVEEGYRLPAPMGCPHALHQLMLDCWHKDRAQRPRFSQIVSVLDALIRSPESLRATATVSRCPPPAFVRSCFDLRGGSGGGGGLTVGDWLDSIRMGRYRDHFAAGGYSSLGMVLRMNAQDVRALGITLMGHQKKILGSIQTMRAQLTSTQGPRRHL
The following applies: kinase EPHA8, compound 10 uM; for remaining activity at 10 µM: read-out: % Enzyme Activity (relative to DMSO controls).

In assay [2] the target is T2, 382 unique human kinases (Homo sapiens, UniProt O00506).
T2 construct: purchased Reaction Biology (HotSpot contract assay)
The following applies: STK25/YSK1, compound at 10 uM, duplicate values; for remaining activity at 10 µM: read-out: % Enzyme Activity (relative to DMSO controls).

Assay [3] deals with T3, 382 unique human kinases (Homo sapiens, UniProt Q9H422).
T3 construct: purchased Reaction Biology (HotSpot contract assay)
Particulars: HIPK3, compound at 10 uM, duplicate values; for remaining activity at 10 µM: read-out: % Enzyme Activity (relative to DMSO controls).

The target in assay [4] is T4, 382 unique human kinases (Homo sapiens, UniProt P08581, T1173I).
T4 construct: purchased Reaction Biology (HotSpot contract assay)
Particulars: c-MET (T1173I), compound at 10 uM, duplicate values; for remaining activity at 10 µM: read-out: % Enzyme Activity (relative to DMSO controls).

Assay [5] addresses T5, 382 unique human kinases (Homo sapiens, UniProt P21802, K641R).
T5 construct: purchased Reaction Biology (HotSpot contract assay)
Particulars: FGFR2 (K641R), 10 uM; for remaining activity at 10 µM: read-out: % Enzyme Activity (relative to DMSO controls).

The target in assay [6] is T6, 382 unique human kinases (Homo sapiens, UniProt Q12852).
T6 sequence (Q12852 1-859): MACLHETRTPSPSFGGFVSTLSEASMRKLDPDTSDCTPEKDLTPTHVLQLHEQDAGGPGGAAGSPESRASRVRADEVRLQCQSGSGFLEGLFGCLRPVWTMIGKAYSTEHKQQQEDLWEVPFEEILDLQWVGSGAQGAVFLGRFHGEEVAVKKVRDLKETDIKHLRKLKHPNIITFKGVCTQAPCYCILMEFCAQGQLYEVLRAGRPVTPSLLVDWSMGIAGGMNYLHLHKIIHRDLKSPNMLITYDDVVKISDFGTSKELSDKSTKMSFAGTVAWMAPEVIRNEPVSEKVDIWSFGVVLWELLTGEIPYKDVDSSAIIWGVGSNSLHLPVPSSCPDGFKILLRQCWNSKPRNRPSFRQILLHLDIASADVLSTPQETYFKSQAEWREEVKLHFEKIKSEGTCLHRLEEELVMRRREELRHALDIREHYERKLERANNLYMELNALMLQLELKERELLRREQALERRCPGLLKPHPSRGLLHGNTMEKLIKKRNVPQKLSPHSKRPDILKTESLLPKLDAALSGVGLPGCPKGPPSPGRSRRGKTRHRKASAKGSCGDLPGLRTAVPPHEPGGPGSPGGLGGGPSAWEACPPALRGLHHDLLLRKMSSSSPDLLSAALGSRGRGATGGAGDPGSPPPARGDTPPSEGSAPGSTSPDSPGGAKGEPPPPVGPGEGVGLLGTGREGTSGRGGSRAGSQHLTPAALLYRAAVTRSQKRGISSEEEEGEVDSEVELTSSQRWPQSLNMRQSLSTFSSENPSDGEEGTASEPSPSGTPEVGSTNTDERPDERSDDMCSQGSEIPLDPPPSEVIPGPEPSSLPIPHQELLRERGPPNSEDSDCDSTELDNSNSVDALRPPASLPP
Particulars: kinase DLK/MAP3K12, compound 10 uM; for remaining activity at 10 µM: read-out: % Enzyme Activity (relative to DMSO controls).

The target of assay [7] is T7, 382 unique human kinases (Homo sapiens, UniProt Q9UM73, F1174L).
T7 construct: purchased Reaction Biology (HotSpot contract assay)
The following applies: ALK (F1174L), 10 uM; for remaining activity at 10 µM: read-out: % Enzyme Activity (relative to DMSO controls).

Assay [8] deals with T8, 382 unique human kinases (Homo sapiens, UniProt P53355).
T8 construct: purchased Reaction Biology (HotSpot contract assay)
Particulars: kinase DAPK1, compound 10 uM; for remaining activity at 10 µM: read-out: % Enzyme Activity (relative to DMSO controls).

In assay [9] the target is T9, 382 unique human kinases (Homo sapiens, UniProt P10721, K642E).
T9 construct: purchased Reaction Biology (HotSpot contract assay)
Particulars: kinase c-Kit (K642E), compound 10 uM; for remaining activity at 10 µM: read-out: % Enzyme Activity (relative to DMSO controls).

Assay [10] has as its target T10, 382 unique human kinases (Homo sapiens, UniProt P54764).
T10 construct: purchased Reaction Biology (HotSpot contract assay)
The following applies: EPHA4, [ATP] 30 µM, compound 10 uM; for remaining activity at 10 µM: read-out: % Enzyme Activity (relative to DMSO controls).

In assay [11] the target is T11, 382 unique human kinases (Homo sapiens, UniProt P49840).
T11 construct: purchased Reaction Biology (HotSpot contract assay)
The following applies: GSK3a, [ATP] 30 µM, compound 10 uM; for remaining activity at 10 µM: read-out: % Enzyme Activity (relative to DMSO controls).

The target in assay [12] is T12, 382 unique human kinases (Homo sapiens, UniProt P11362).
T12 construct: purchased Reaction Biology (HotSpot contract assay)
The following applies: FGFR1, [ATP] 5 µM, compound 10 uM; for remaining activity at 10 µM: read-out: % Enzyme Activity (relative to DMSO controls).

Assay [13] addresses T13, 382 unique human kinases (Homo sapiens, UniProt P10721, D816E).
T13 construct: purchased Reaction Biology (HotSpot contract assay)
Particulars: c-Kit (D816E), [ATP] 50 µM, compound 10 uM; for remaining activity at 10 µM: read-out: % Enzyme Activity (relative to DMSO controls).

T5 sequence (P21802 22-821 K641R): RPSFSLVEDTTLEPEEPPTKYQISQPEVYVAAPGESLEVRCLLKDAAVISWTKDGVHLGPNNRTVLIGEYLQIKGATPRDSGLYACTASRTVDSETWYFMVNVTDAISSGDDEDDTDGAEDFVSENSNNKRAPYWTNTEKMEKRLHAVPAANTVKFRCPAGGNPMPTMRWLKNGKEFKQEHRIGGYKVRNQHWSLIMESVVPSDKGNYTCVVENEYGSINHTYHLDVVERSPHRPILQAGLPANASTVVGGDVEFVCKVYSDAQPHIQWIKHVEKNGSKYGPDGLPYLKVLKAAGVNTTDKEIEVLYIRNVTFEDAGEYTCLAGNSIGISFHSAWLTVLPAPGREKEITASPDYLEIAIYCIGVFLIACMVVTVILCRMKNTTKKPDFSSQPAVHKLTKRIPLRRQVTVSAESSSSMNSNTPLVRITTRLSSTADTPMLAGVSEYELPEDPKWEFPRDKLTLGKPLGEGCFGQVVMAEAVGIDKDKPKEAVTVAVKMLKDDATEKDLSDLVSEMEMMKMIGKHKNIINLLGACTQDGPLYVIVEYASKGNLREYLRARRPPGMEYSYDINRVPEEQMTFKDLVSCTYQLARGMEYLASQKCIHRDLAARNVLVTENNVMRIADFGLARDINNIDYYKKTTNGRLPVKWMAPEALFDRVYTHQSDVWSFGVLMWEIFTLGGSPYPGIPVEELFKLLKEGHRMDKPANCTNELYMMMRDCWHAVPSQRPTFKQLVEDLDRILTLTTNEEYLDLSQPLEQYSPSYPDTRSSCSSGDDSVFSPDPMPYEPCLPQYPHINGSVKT
T2 sequence (O00506 whole entry): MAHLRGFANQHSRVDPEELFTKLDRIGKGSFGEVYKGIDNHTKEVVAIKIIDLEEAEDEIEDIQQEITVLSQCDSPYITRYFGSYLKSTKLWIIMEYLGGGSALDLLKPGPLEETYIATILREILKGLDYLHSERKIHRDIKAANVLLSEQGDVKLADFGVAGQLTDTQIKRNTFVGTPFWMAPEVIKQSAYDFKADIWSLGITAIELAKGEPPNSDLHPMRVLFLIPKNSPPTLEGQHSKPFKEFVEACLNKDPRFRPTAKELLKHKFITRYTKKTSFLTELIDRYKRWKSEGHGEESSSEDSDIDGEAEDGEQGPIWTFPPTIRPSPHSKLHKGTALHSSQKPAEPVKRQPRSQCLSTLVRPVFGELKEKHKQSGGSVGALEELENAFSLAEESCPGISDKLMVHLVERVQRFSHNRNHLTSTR
T9 sequence (P10721 26-976 K642E): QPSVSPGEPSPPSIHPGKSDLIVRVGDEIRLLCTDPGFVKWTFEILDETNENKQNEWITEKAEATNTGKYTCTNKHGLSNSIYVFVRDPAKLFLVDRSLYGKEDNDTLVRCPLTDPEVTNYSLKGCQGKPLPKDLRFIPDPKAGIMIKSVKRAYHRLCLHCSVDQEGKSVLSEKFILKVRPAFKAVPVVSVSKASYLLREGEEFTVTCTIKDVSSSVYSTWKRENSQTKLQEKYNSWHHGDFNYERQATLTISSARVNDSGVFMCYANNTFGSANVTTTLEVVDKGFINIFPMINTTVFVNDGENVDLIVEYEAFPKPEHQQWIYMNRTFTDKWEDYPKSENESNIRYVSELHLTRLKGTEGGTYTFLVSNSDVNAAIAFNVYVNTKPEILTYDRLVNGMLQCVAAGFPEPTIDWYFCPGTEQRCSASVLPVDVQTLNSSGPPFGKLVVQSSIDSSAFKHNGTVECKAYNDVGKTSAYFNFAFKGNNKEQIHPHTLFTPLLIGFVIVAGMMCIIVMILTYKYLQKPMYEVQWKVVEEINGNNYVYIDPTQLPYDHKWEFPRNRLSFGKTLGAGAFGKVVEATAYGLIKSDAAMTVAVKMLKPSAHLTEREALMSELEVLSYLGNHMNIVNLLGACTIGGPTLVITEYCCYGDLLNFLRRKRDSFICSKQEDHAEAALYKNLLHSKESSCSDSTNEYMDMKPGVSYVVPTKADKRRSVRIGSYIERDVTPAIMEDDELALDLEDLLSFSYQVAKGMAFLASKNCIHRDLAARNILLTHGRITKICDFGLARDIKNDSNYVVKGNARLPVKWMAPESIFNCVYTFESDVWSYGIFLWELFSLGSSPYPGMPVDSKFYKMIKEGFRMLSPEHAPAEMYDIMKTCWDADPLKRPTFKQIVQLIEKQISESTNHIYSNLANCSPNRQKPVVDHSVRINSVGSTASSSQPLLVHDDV
T7 sequence (Q9UM73 19-1620 F1174L): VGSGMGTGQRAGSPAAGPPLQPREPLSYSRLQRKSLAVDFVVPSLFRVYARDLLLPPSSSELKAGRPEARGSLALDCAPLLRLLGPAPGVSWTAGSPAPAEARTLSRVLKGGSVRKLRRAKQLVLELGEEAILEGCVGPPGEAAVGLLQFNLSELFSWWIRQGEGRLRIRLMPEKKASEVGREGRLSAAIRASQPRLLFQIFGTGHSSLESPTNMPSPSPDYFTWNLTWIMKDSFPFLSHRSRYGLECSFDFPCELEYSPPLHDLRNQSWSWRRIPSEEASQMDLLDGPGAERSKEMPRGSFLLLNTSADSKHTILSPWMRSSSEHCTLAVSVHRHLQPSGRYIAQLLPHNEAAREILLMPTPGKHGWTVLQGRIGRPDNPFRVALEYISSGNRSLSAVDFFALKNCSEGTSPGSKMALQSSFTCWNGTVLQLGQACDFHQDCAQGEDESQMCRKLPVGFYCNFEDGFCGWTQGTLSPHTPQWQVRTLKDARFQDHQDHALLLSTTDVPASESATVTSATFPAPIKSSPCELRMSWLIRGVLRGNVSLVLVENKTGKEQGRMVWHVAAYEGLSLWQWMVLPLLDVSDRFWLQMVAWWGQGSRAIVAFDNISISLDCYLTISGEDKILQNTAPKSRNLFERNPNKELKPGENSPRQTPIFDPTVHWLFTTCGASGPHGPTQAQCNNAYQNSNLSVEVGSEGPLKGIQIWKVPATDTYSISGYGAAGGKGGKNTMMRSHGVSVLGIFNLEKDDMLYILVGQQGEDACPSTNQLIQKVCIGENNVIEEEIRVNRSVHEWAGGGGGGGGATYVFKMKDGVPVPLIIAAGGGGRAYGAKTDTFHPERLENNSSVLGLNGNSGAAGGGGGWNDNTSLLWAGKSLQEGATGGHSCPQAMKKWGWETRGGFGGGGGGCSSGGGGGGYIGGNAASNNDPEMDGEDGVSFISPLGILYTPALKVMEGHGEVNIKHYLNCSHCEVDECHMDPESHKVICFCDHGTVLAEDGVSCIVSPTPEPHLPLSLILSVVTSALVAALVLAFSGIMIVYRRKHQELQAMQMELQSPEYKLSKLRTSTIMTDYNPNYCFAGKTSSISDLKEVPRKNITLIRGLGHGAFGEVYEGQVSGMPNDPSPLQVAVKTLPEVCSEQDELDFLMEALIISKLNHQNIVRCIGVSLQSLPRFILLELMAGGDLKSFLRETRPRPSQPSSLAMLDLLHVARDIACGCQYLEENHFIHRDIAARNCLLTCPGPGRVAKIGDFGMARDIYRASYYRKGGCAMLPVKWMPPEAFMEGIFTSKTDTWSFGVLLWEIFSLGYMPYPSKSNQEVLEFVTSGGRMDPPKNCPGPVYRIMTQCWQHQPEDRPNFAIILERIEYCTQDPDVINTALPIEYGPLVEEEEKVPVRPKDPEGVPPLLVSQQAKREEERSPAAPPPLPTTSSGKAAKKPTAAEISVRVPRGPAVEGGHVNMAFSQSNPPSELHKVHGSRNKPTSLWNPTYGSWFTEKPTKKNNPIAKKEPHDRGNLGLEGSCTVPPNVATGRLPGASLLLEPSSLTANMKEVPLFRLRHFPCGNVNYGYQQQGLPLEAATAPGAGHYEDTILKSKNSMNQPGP
T13 sequence (P10721 26-976 D816E): as the sequence (P10721 26-976 K642E) above, with E617K, D791E counted along it
T11 sequence (P49840 whole entry): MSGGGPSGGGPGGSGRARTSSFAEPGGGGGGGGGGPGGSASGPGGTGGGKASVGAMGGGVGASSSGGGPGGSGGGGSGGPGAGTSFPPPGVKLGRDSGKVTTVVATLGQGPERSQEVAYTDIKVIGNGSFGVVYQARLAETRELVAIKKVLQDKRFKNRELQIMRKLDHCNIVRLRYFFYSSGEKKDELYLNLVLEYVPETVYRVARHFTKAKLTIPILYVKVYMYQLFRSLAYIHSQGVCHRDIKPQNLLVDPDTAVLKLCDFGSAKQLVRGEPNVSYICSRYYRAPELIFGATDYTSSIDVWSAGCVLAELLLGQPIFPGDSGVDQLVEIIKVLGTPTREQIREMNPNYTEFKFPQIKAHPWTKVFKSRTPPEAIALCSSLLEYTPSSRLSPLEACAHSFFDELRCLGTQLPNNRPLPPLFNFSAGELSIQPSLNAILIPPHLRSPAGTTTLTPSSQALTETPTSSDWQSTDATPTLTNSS

On to `CC(C)c1cc(-c2n[nH]c(=O)n2-c2ccc3c(ccn3C)c2)c(O)cc1O` [Ganetespib (STA9090)], for which the remaining activity at 10 µM in assay [1] was found to be 95.2%; in [2] it was 107%; in assay [3], 111%; in assay [4], 102%; in assay [5], 78%; in assay [6], 84.7%. Moreover, the remaining activity at 10 µM amounted to 63.6% in assay [7], 83.3% in [8] and 85.5% in assay [9].

As for `CC(C)c1cc(-c2n[nH]c(=O)n2-c2ccc3c(ccn3C)c2)c(O)cc1O` [Ganetespib], the remaining activity at 10 µM in assay [10] worked out at 49%; in assay [11], 21.9%; in assay [12] it was 58.5%; in [13], 41.2%.

Consider `CCNC(=O)c1noc(-c2cc(C(C)C)c(O)cc2O)c1-c1ccc(CN2CCOCC2)cc1` [Luminespib (AUY-922)], for which the “% Enzyme Activity (relative to DMSO controls)” value in assay [1] was found to be 92.42%; in assay [2], 107.24%; in assay [3] it was 106.96%; in assay [4], 114.35%; in assay [5], 98.16%; in assay [6], 120.31%. The entries for the “% Enzyme Activity (relative to DMSO controls)” value in [7], in assay [8] and in [9] were 104.30%, 82.81% and 81.47%, respectively. In addition, the remaining activity at 10 µM came to 94.1% in assay [1]; 110% in assay [2]; 108% in [3]; 118% in [4]; 98.4% in [5]; 122% in assay [6]. Moreover, the remaining activity at 10 µM came to 104% in [7], 83.5% in [8] and 82.3% in assay [9].

Turning to `CCNC(=O)c1noc(-c2cc(C(C)C)c(O)cc2O)c1-c1ccc(CN2CCOCC2)cc1` [Luminespib], the “% Enzyme Activity (relative to DMSO controls)” value amounted to 90.78% in assay [10], 93.84% in [11], 97.95% in [12] and 73.14% in assay [13]. Also, the remaining activity at 10 µM came out at 91.1% in assay [10], 96.4% in [11], 102% in assay [12] and 76.2% in assay [13].
